Experimental data reported in patent US12390470B2, “1-methylxanthine-based bioactive composition and method of use thereof” (Ingenious Ingredients, LP, priority 2021, dated 2025).

How the values were obtained:
male Swiss Albino mice = experiment: Cook's pole climbing test, scopolamine-induced amnesia; type: in vivo
Experimental: Behavioral studies were conducted in mice to examine the learning and memory ability by using Cook's pole and Passive shock avoidance test.
(§1) Twenty-four 8-week-old male Swiss Albino mice were housed in an animal room at a constant temperature (22±3° C.) and humidity (30%-70%) under a 12:12 h light-dark cycle with standard laboratory diet (Purina 5L79, Rat and Mouse 18% protein; PMI Nutrition International, Brentwood, MO, USA). Distilled water was provided ad libitum. All animal experiments were reviewed and approved by the Institutional Animal Ethical Committee (IAEC) of Radiant Research Services Pvt. Ltd (Bangalore, India). All research was conducted in accordance with the guidelines of the committee for the purpose of control and supervision of experiments on animals.
After one week of acclimation, the animals were randomly divided by body weight into three groups (n=8 per group in each test) for oral treatment once a day, at approximately same time each day (±1 hour), for 7 consecutive days: (1) vehicle control or (2) 1-methylxanthine or (3) 1-methylxanthine plus paraxanthine. The dose administered to the mice was calculated using US Food and Drug Administration for human equivalence doses (HED), assuming a human weight of 60 kg. The following HED was used in this study: 100 mg 1-methylxanthine (Ingenious Ingredients, L.P Lewisville, TX, USA; mouse dose: 20.5 mg/kg bw/day), or 100 mg 1-methylxanthine (Ingenious Ingredients, L.P Lewisville, TX, USA; mouse dose: 20.5 mg/kg bw/day) plus 100 mg paraxanthine (ENFINITY™, Ingenious Ingredients, L.P Lewisville, TX, USA; mouse dose: 20.5 mg/kg bw/day). 0.5% Carboxy Methyl Cellulose sodium was used as vehicle and the test item formulations were prepared daily. […] Food intake was monitored daily while water intake was ad libitum.
Mice were trained in such a way that the animal had to climb the pole (shock free zone) within 30 seconds to avoid a shock. […] At particular intervals, 20 trials were given for each animal and average of the shock avoidance and mistakes were recorded. […]

Swiss Albino Wistar rats = experiment: Morris water maze test in young and old rats; type: in vivo; conditions: HED 100 mg 1-MX (+25 mg PX)
Experimental: as §1, with “young (6-8 Week) and twenty-four old (14-16 Months)” for “8-week-old male”, “Wistar rats” for “mice”
(§2) After one week of acclimation, the animals were randomly divided by body weight and age into six groups (n=8 per group in each test) for oral treatment once a day, at approximately same time each day (±1 hour), for 10 consecutive days: (1) vehicle control or (2) 1-methylxanthine or (3) 1-methylxanthine plus paraxanthine. The dose administered to the rat was calculated using US Food and Drug Administration for human equivalence doses (HED), assuming a human weight of 60 kg. […] Food intake was monitored daily while water intake was ad libitum. […] Body weight was recorded weekly. […]

dopamine = experiment: Dopamine level in young and old rats; type: in vivo; conditions: old rats
Experimental: as §1, with “young (6-8 Week) and twenty-four old (14-16 Months)” for “8-week-old male”, “Wistar rats” for “mice”
as §2

participants = experiment: Anxiety by Visual Analog Scale; type: in vivo, human; set-up: Anxiety (Visual Analog Scale) / Anxiety (VAS) MEAN (30-180) / Anxiety (VAS) Δ vs. CA: scale not given here
Experimental: All supplements were orally ingested with 8 fluid ounces of cold tap water. Anxiety was measured by Visual Analog Scale (VAS) at baseline, 30, 60, 90, 120 and 180 minutes after ingestion.

## Cn1c(=O)[nH]c2nc[nH]c2c1=O [1-methylxanthine, 1-Methyl-3H-purine-2,6-dione]
Male Swiss Albino mice; Cook's pole
  Escape latency faster than control: 14.9%
Male Swiss Albino mice; mice, oral 7 days, scopolamine
  Escape latency, Cook's pole climbing test: 10.13 ± 0.83 s
Male Swiss Albino mice; summary of Cook's pole and passive shock avoidance tests
  Overall outcome on amnesia, memory and learning: showed reversal of amnesia induced by scopolamine and improved memory and learning
Swiss Albino Wistar rats; old rats
  Escape latency, Morris water maze: 41.71 ± 1.81 s
Swiss Albino Wistar rats; young rats
  Escape latency, Morris water maze: 32.18 ± 1.10 s
dopamine
  dopamine level: 474.42 ± 13.49 ng/L
participants; 200 mg oral
  lower feelings of anxiety in comparison to CA: 21%
participants; Average
  Anxiety (VAS) MEAN (30-180): 58.8
  Anxiety (VAS) Mean Δ from 0: +1.3
participants; Person one
  Anxiety (VAS) MEAN (30-180): 48.6
  Anxiety (VAS) Mean Δ from 0: −1.4
  Anxiety (VAS) Δ vs. CA: −26.0
participants; Person one, 30 min
  Anxiety (Visual Analog Scale): 51
participants; Person one, 60 min
  Anxiety (Visual Analog Scale): 40
participants; Person one, 90 min
  Anxiety (Visual Analog Scale): 40
participants; Person one, 120 min
  Anxiety (Visual Analog Scale): 51
participants; Person one, 180 min
  Anxiety (Visual Analog Scale): 61
participants; Person one, time 0, 200 mg oral
  Anxiety (Visual Analog Scale): 50
participants; Person two
  Anxiety (VAS) MEAN (30-180): 69.0
  Anxiety (VAS) Mean Δ from 0: +4.0
  Anxiety (VAS) Δ vs. CA: −5.2
participants; Person two, 30 min
  Anxiety (Visual Analog Scale): 65
participants; Person two, 60 min
  Anxiety (Visual Analog Scale): 65
participants; Person two, 90 min
  Anxiety (Visual Analog Scale): 65
participants; Person two, 120 min
  Anxiety (Visual Analog Scale): 75
participants; Person two, 180 min
  Anxiety (Visual Analog Scale): 75
participants; Person two, time 0, 200 mg oral
  Anxiety (Visual Analog Scale): 65
